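Compound exposure: 48 hours, 5 concentrations, 96-well plates. GI50 is the concentration that inhibits growth by half. Definition used: TGI = concentration required for complete inhibition of growth.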
Assays:
Assay in all cases: NCI tumour cell line growth inhibition, 48 h
HCC-2998 colon = test system: HCC-2998 colon
LOX IMVI melanoma = test system: LOX IMVI melanoma
ACHN renal = test system: ACHN renal
HCT-15 colon = test system: HCT-15 colon
COLO 205 colon = test system: COLO 205 colon
MOLT-4 leukemia = test system: MOLT-4 leukemia
SR leukemia = test system: SR leukemia
NCI/ADR-RES ovarian = test system: NCI/ADR-RES ovarian
HS 578T breast = test system: HS 578T breast
MDA-MB-435 = test system: MDA-MB-435

Row | Compound | TGI (HCC-2998 colon) | TGI (LOX IMVI melanoma) | TGI (ACHN renal) | TGI (HCT-15 colon) | TGI (COLO 205 colon) | TGI (MOLT-4 leukemia) | TGI (SR leukemia) | GI50 (HCC-2998 colon) | GI50 (LOX IMVI melanoma) | GI50 (ACHN renal) | GI50 (HCT-15 colon) | GI50 (COLO 205 colon) | GI50 (NCI/ADR-RES ovarian) | TGI (NCI/ADR-RES ovarian) | GI50 (HS 578T breast) | TGI (HS 578T breast) | GI50 (SR leukemia) | GI50 (MOLT-4 leukemia) | TGI (MDA-MB-435) | GI50 (MDA-MB-435)
1 | COc1ccc(C(=O)O/N=C2\CCCC\C2=C/c2ccccc2)cc1 | > 100 µM | > 100 µM | > 100 µM | > 100 µM | > 100 µM | > 100 µM |  |  |  |  |  |  |  |  |  |  |  |  |  | 
2 | CC(=O)NNc1nc(C)c(C(/C=C/c2ccc(/C=C/C(=N\NC(=O)c3ccncc3)c3sc(NNC(C)=O)nc3C)cc2)=N/NC(=O)c2ccncc2)s1 | > 100 µM | > 100 µM | > 100 µM | > 100 µM | > 100 µM | > 100 µM |  |  |  |  |  |  |  |  |  |  |  |  |  | 
3 | O=C(CC1Sc2ccccc2NC1=O)Nc1cccc(Cl)c1 (stereo not drawn) | > 100 µM | 48.2 µM | > 100 µM | > 100 µM |  | 57.2 µM | 97.5 µM |  |  |  |  |  |  |  |  |  |  |  |  | 
4 | c1ccc([CH2][Sn]([CH2]c2ccccc2)([S]c2cccc3cccnc23)[S]c2cccc3cccnc23)cc1 | 0.334 µM | 0.442 µM | 0.985 µM | 0.476 µM | 0.366 µM |  |  | 0.139 µM | 0.215 µM | 0.302 µM | 0.2 µM | 0.0801 µM |  |  |  |  |  |  |  | 
5 | COC(=O)C1=Cc2cc3c(cc2[C@H](c2ccc4c(c2)OCO4)C1C(=O)OC)OCO3 (stereo partly drawn) | > 100 µM | > 100 µM | > 100 µM | > 100 µM | > 100 µM | > 100 µM | > 100 µM |  |  |  |  |  |  |  |  |  |  |  |  | 
6 | COc1ccc(C(=O)c2cc3c(N)c(C(=O)Nc4cccc(Cl)c4)sc3nc2C)cc1 | > 33.3 µM | > 33.3 µM | > 33.3 µM | > 33.3 µM | > 33.3 µM | > 33.3 µM | > 33.3 µM | 1.92 µM | 2.39 µM | 2.12 µM | 1.32 µM | 1.67 µM | 1.49 µM | > 33.3 µM | 0.957 µM | 6.62 µM | 1.15 µM | 1.89 µM |  | 
7 | Cc1c(C(=O)/C=C/c2ccco2)[n+](=O)c2ccccc2n1[O-] | > 100 µM | > 100 µM | > 100 µM |  | > 100 µM | > 100 µM | > 100 µM |  |  |  |  |  |  |  |  |  |  |  |  | 
8 | O=C1CCCC1C(=O)Nc1ccc2ccccc2c1 (stereo not drawn) | > 100 µM | > 100 µM | > 100 µM | > 100 µM | > 100 µM | > 100 µM | > 100 µM |  |  |  |  |  |  | > 100 µM |  |  |  |  | > 100 µM | 
9 | COC(=O)C1=C(O)C(O)=C(C(=O)OC)CC1 | > 100 µM | > 100 µM | > 100 µM | > 100 µM | > 100 µM | > 100 µM | > 100 µM |  |  |  |  |  |  |  |  |  |  |  |  | 
10 | CN(C)C1(C#N)CCC2(CC1)OCCO2 | > 100 µM | > 100 µM | > 100 µM | > 100 µM | > 100 µM | > 100 µM | > 100 µM |  |  |  |  |  |  |  |  |  |  |  |  | 
11 | COC(=O)C1=CC(=O)C(C(=O)Nc2ccc(OC)cc2)C(c2ccccc2)O1 (stereo not drawn) | > 78.7 µM | > 72.9 µM | > 71.9 µM | > 100 µM | > 100 µM | > 100 µM | > 100 µM |  |  |  |  |  |  |  |  |  |  |  |  | 
12 | COc1ccc(C2SC(N)=Nc3c2c(C)nn3C(=O)c2ccncc2)cc1 (stereo not drawn) |  | > 100 µM | > 100 µM | > 100 µM | > 100 µM | > 100 µM | 73 µM |  |  |  |  |  |  | > 100 µM |  | > 100 µM |  |  | > 100 µM | 
13 | COc1cc([C@@H]2c3cc4c(cc3[C@H](OC3OC5COC(c6ccccc6)OC5C(O)C3O)[C@H]3COC(=O)[C@H]23)OCO4)cc(OC)c1OC (stereo partly drawn) | 4.7 µM | 2.84 µM | 12.7 µM | 13.7 µM | 0.935 µM |  | > 100 µM | 0.367 µM | 0.427 µM | 0.596 µM | 0.281 µM | 0.28 µM | 0.4 µM | 3 µM | 0.303 µM | 1.67 µM | 0.31 µM |  | 3.08 µM | 0.245 µM
14 | CCOC(=O)c1cc2c(n1Cc1cccc(OC)c1)-c1oncc1CC2 | 29.6 µM | > 100 µM | > 100 µM | > 100 µM | 3.99 µM | > 100 µM |  | 1.94 µM | 0.794 µM | 2.66 µM | 0.521 µM | 0.508 µM | 0.302 µM | 5.14 µM | 0.742 µM | 8.16 µM |  | 1.16 µM |  | 
15 | O=C(Cn1ccnc1[N+](=O)[O-])NCCO | > 100 µM | > 100 µM | > 100 µM | > 100 µM | > 100 µM |  | > 100 µM |  |  |  |  |  |  | > 100 µM |  | > 100 µM |  |  | > 100 µM | 
16 | CN1CCC(O)C(CNC23CC4CC(CC(C4)C2)C3)C1 (stereo not drawn) |  | > 100 µM | > 100 µM |  | > 100 µM | > 100 µM | > 100 µM |  |  |  |  |  |  |  |  |  |  |  |  | 
17 | CCC12C=CCN3CC[C@]4(C(=C(C(=O)OC)[C@@H]1Nc1ncnc5c1ncn5C1OC(COC(C)=O)C(OC(C)=O)C1OC(C)=O)Nc1ccccc14)C32 (stereo partly drawn) | 4.56 µM | 3.25 µM | 5.69 µM | 7.79 µM | 3.48 µM | 25.3 µM | 6.17 µM |  |  |  |  |  |  |  |  |  |  |  |  | 
18 | CCS[C@H]1NC(=O)C1[C@H](C)O[Si](C)(C)C(C)(C)C (stereo partly drawn) |  | > 100 µM | > 100 µM | > 100 µM | > 100 µM |  |  |  |  |  |  |  |  |  |  |  |  |  |  | 
19 | Cc1ccc(S(=O)(=O)NCCCN(CCCNS(=O)(=O)c2ccc(C)cc2)S(=O)(=O)c2ccc(C)cc2)cc1 | > 100 µM | > 100 µM | > 100 µM | > 100 µM | > 100 µM | > 100 µM | > 100 µM |  |  |  |  |  |  |  |  |  |  |  |  | 
20 | CC(C)c1ccc2c(c1)CCC1C(C)(C)[C@@H](O)CC[C@]21C (stereo partly drawn) | 58.1 µM | 28.8 µM | > 100 µM | > 100 µM | 32.9 µM | 89.9 µM | 33.4 µM |  |  |  |  |  |  |  |  |  |  |  |  | 
21 | CC(C)NC(=O)OCc1nnn2c1C(OC(=O)NC(C)C)CC2 (stereo not drawn) | > 100 µM |  |  | > 100 µM | > 100 µM | > 100 µM | > 100 µM |  |  |  |  |  |  |  |  |  |  |  |  | 
22 | CCOC(=O)C(C(=O)c1ccccc1-c1ccccc1C(=O)O)=P(c1ccccc1)(c1ccccc1)c1ccccc1 | 47.7 µM | 40.8 µM | > 100 µM | 74.8 µM | 40.6 µM | 79 µM | 85.1 µM |  |  |  |  |  |  |  |  |  |  |  |  | 
